Data published in ChEMBL document CHEMBL1201862, “PubChem BioAssay data set” (2004).
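All cell lines were grown in 96-well plates and treated with compound for 48 hours. GI50 is the concentration that inhibits growth by half.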 The source made the active and inactive calls. Cut-off read from the data, not from the text of the source: active = GI50 up to about 1.1 µM and inactive = higher.

Assays:
Assay in all cases: NCI anticancer screen, dose series, 48 h
[1] = tested on: LXFL 529
[2] = tested on: M19-MEL
[3] = tested on: KM-20L2
[4] = tested on: DMS-114
[5] = tested on: RXF 631
[6] = tested on: DLD-1
[7] = tested on: SNB-78
[8] = tested on: HOP-18
[9] = tested on: XF498

Measured: GI50

CCCCCCCCCCCCCCCC(=O)OCC(C[As](=O)(O)O)OC(=O)CCCCCCCCCCCCCCC (stereo unspecified)
inactive: [1] > 100 µM | [2] > 100 µM | [3] > 100 µM | [4] 70.6 µM | [5] 54.7 µM | [6] > 100 µM | [7] 22.4 µM | [8] > 100 µM | [9] 27 µM

C=CCONC(=O)c1ccc(Cl)cc1
inactive: [1] > 100 µM | [2] > 100 µM | [3] > 100 µM | [4] > 100 µM | [5] > 100 µM | [6] > 100 µM | [7] > 100 µM | [8] > 100 µM | [9] > 100 µM

Cc1cc(/N=C2\C=C(Nc3cc(C)on3)C(=O)c3ccccc32)no1
inactive: [1] > 100 µM | [2] 2.64 µM | [3] 43.7 µM | [4] 25.1 µM | [5] 28.8 µM | [6] > 100 µM | [7] 24.7 µM | [8] 28.4 µM | [9] 35.6 µM

CCN(CC)c1ccc2c(c1)Nc1cc(=C(C#N)C#N)c3ccccc3c1=N2
inactive: [1] > 100 µM | [2] > 100 µM | [3] > 100 µM | [4] > 100 µM | [5] > 100 µM | [6] > 100 µM | [7] > 100 µM | [8] > 100 µM | [9] > 100 µM
